The values that follow come from patent publication US11053234B2 (GlaxoSmithKline Intellectual Property Development Limited, priority 2016, dated 2021).

The target of this test is T1, haematopoietic prostaglandin D synthase (H-PGDS) (Homo sapiens, UniProt O60760).
T1 construct: Full length human H-PGDS cDNA (Invitrogen Ultimate ORF 10H13026) was amplified by PCR; 6-His (N); TEV protease cleavage site (N); made in house; host or cells: E. coli BL21 (DE3*), vector pET22b+
Nature of the test: H-PGDS RapidFire high throughput mass spectrometry assay (conversion of PGH2 to PGD2). Particulars: 10 nM H-PGDS, PGH2 formed in situ by COX-2 from arachidonic acid; read-out: Potency Range (mean pIC50) (converted). It counts as biochemical. As for the experimental part:
H-PGDS RapidFire™ High Throughput Mass Spectrometry Assay
The H-PGDS RapidFire™ mass spectrometric assay monitors conversion of prostaglandin H2 (PGH2) to prostaglandin D2 (PGD2) by haematopoietic prostaglandin D synthase (H-PGDS). In the assay format described here, the substrate (PGH2) is formed in situ by the action of cyclooxygenase-2 on arachidonic acid. This first step is set up to be fast, and generates a burst of PGH2 at ˜10 μM. The PGH2 is then further converted to PGD2 by the H-PGDS enzyme. […] Plates are then read on the RapidFire™ high throughput solid phase extraction system (Agilent) which incorporates a solid phase extraction step coupled to a triple quadrupole mass spectrometer (AB SCIEX). Relative levels of PGD2 and PGF2α, which acts as a surrogate for substrate, are measured and a percent conversion calculated.
Expression and Purification of H-PGDS Protein
Full length human H-PGDS cDNA (Invitrogen Ultimate ORF 10H13026) was amplified by PCR with the addition of a 5′ 6-His tag and TEV protease cleavage site. The PCR product was digested with Ndel and Xhol and ligated into pET22b+ (Merck Novagen®). Expression was carried out in E. coli strain BL21 (DE3*) using auto-induction Overnight Express™ Instant TB medium (Merck Novagen®) supplemented with 1% glycerol. The culture was first grown at 37° C. and the temperature was reduced to 25° C. when OD600 reached 2.0. Cells were harvested by centrifugation after a further 18 hr. 10 g of E. coli cell pellet was suspended to a total volume of 80 mL in lysis buffer (20 mM Tris-Cl pH 7.5, 300 mM NaCl, 20 mM imidazole, 5 mM β-mercaptoethanol, 10% glycerol). 1 mg/mL protease inhibitors (Protease Inhibitor Cocktail Set III, Merck Calbiochem®) and 1 mg/mL lysozyme were added to the cell suspension. The suspension was then sonicated for 5 min (UltraSonic Processor VCX 750, Cole-Parmer Instrument Co.) with a micro probe (50% amplitude, 10 sec on/off) and then centrifuged at 100,000 g for 90 min (at 4° C.). The supernatant was loaded onto a Ni-NTA HiTrap column (5 mL, GE Healthcare, pre-equilibrated in lysis buffer). The column was washed with 10 column volumes of lysis buffer and eluted with lysis buffer containing 500 mM imidazole. The pooled protein peak fractions were concentrated using a 10 kDa centrifugal filter at 3500 g and 4° C. (Amicon Ultra-15 centrifugal filter unit with Ultracel-10 membrane from Millipore). Further purification of the concentrated protein was carried out using gel filtration chromatography on a HiLoad 26/600 Superdex 75 preparative grade column (GE Healthcare Life Sciences) using 50 mM Tris pH 7.5, 50 mM NaCl, 1 mM dithiothreitol, 1 mM MgCl2. Fractions containing the protein were pooled, concentrated as described above, and stored at −80° C.
Expression and Purification of Cyclooxygenase-2 (COX-2) Protein
The full length human COX-2 gene (accession number L15326) was amplified by PCR to generate an EcoRI-HindIII fragment containing an in-frame FLAG tag. This was subcloned into pFastBac 1 (Invitrogen). The COX2 FLAG plasmid was recombined into the baculovirus genome according to the BAC-to-BAC protocol described by Invitrogen. Transfection into Spodoptera frugiperda (Sf9) insect cells was performed using Cellfectin (Invitrogen), according to the manufacturer's protocol. […] Cells were harvested using a continuous feed centrifuge run at 2500 g at a rate of approximately 2 L/min with cooling. The resultant cell slurry was re-centrifuged in pots (2500 g, 20 min, 4° C.) and the cell paste was stored at −80° C. […] The suspension was sonicated in 500 mL batches for 8×5 seconds at 10 u amplitude with the medium tip of an MSE probe sonicator and subsequently incubated at 4° C. for 90 min with gentle stirring. The lysate was centrifuged at 12000 rpm for 45 min at 4° C. in a Sorvall SLA1500 rotor. The supernatant (1400 mL) was added to 420 mL of 20 mM Tris-Cl pH 7.4, 150 mM NaCl, 0.1 mM EDTA to reduce the concentration of n-octyl-6-D-glucopyranoside to 1% w/v.

T1 sequence (O60760 whole entry): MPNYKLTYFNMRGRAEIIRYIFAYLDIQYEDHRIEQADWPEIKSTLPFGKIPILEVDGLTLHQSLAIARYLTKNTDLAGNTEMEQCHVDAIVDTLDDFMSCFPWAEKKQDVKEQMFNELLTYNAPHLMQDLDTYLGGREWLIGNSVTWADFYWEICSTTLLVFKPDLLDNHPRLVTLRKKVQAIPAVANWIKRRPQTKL

Turning to `COc1ccc(CN2CCC(NC(=O)[C@H]3C[C@H](Oc4cc(F)ccc4OC)C3)CC2)cc1Cl` [Example 156, (trans)-N-(1-(3-Chloro-4-methoxybenzyl)piperidin-4-yl)-3-(5-fluoro-2-methoxyphenoxy)cyclobutanecarboxamide], the IC50 was 10 to 79.4 nM. The result for `CN/C(=N\C#N)N1CC(NC(=O)[C@H]2C[C@H](Oc3cccc4scnc34)C2)C1` [Example 65, (trans)-3-(Benzo[d]thiazol-4-yloxy)-N-(1-((E)-N′-cyano-N-methylcarbamimidoyl)azetidin-3-yl)cyclobutanecarboxamide] reads 100 to 1000 nM.

Regarding `O=C(NC1CN(c2ncc(CO)cn2)C1)N1CC(Oc2cc(F)cc3scnc23)C1` [Example 113, 3-((6-Fluorobenzo[d]thiazol-4-yl)oxy)-N-(1-(5-(hydroxymethyl)pyrimidin-2-yl)azetidin-3-yl)azetidine-1-carboxamide], the IC50 was 10 to 79.4 nM. The figure for `CC(C)(O)[C@H]1CC[C@H](NC(=O)[C@H]2C[C@H](Oc3cc(F)cc(F)c3)C2)CC1` [Example 283, (trans)-3-(3,5-Difluorophenoxy)-N-((trans)-4-(2-hydroxypropan-2-yl)cyclohexyl)cyclobutanecarboxamide] is 100 to 1000 nM; for `CC(C)(O)[C@H]1CC[C@H](NC(=O)[C@H]2C[C@H](Nc3cccc4cccnc34)C2)CC1` [Example 222, (trans)-N-((trans)-4-(2-Hydroxypropan-2-yl)cyclohexyl)-3-(quinolin-8-ylamino)cyclobutanecarboxamide] it is 100 to 1000 nM. As for `CC(C)(O)[C@H]1CC[C@H](NC(=O)[C@H]2C[C@H](Oc3cc(F)ccc3F)C2)CC1` [Example 229, (trans)-3-(2,5-Difluorophenoxy)-N-((trans)-4-(2-hydroxypropan-2-yl)cyclohexyl)cyclobutanecarboxamide], the IC50 is 100 to 1000 nM. The figure for `CC(C)(O)[C@H]1CC[C@H](NC(=O)[C@H]2C[C@H](Oc3cccc(Br)c3)C2)CC1` [Example 228, (trans)-3-(3-Bromophenoxy)-N-((trans)-4-(2-hydroxypropan-2-yl)cyclohexyl)cyclobutanecarboxamide] is 100 to 1000 nM. The result for `CCOC(=O)c1nnc(NC(=O)[C@H]2C[C@H](Oc3cccc4cccnc34)C2)[nH]1` [Example 176, Ethyl 5-((trans)-3-(quinolin-8-yloxy)cyclobutanecarboxamido)-4H-1,2,4-triazole-3-carboxylate] reads 100 to 1000 nM; that for `CCOC(=O)NC12CC(NC(=O)[C@H]3C[C@H](Oc4cccc5scnc45)C3)(C1)C2` [Example 319, Ethyl (3-((trans)-3-(benzo[d]thiazol-4-yloxy)cyclobutane-1-carboxamido)bicyclo[1.1.1]pentan-1-yl)carbamate], 10 to 79.4 nM. The result for `O=C(NC1CN(c2ncc(F)cn2)C1)N1CC(Oc2cccc3scnc23)C1` [Example 61, 3-(Benzo[d]thiazol-4-yloxy)-N-(1-(5-fluoropyrimidin-2-yl)azetidin-3-yl)azetidine-1-carboxamide] reads 10 to 79.4 nM. With `O=C(O)c1csc(NC(=O)[C@H]2C[C@H](Oc3cccc4cccnc34)C2)n1` [Example 193, 2-((trans)-3-(Quinolin-8-yloxy)cyclobutanecarboxamido)thiazole-4-carboxylic acid], the IC50 was 10 to 79.4 nM. The result for `CC(=O)c1csc(NC(=O)N2CC(Oc3cccc4scnc34)C2)n1` [Example 62, N-(4-Acetylthiazol-2-yl)-3-(benzo[d]thiazol-4-yloxy)azetidine-1-carboxamide] reads 10 to 79.4 nM. The result for `CC(C)(O)[C@H]1CC[C@H](NC(=O)[C@H]2C[C@H](Oc3cccc4cc(F)cnc34)C2)CC1` [Example 280, (trans)-3-((3-Fluoroquinolin-8-yl)oxy)-N-((trans)-4-(2-hydroxypropan-2-yl)cyclohexyl)cyclobutanecarboxamide] reads 100 to 1000 nM.
